Source: paper PMC7604503, “Cyclic peptides can engage a single binding pocket through highly divergent modes” (Proceedings of the National Academy of Sciences of the …, 2020)
Where a SMILES comes first, the peptide text is derived from it. Bridges are numbered along the chain shown (N, C = ends).

Legend:
[1] = test system: BD1 domains (BRD2-BD1, BRD3-BD1, BRD4-BD1); experiment: SPR binding, stated for the BD1 domains together; design: species or system human
Procedure: We next assessed the ability of each of the three lead peptides to bind BRD3-BD1. […] To assess selectivity for other BET BDs, we used SPR to determine the binding affinity of each peptide toward the remaining BDs from BRD2, BRD3, and BRD4 (Fig. 1B). […]
Peptides were synthesised as C-terminal amides using standard fluorenylmethyloxycarbonyl (Fmoc)-strategy solid-phase chemistry using a Syro I automated synthesiser (Biotage) and NovaPEG Rink Amide resin (Novabiochem). Couplings were performed with HBTU/HOBt (1:1) and 6 equivalents of each amino acid. Double couplings were performed for arginine residues.
Following the final amino acid coupling reaction, the Fmoc group was removed and resin incubated with N-(chloroacetoxy)succinimide (0.2 M in DMF, 1 h, RT). Resin was washed with DMF (5 times) and DCM (5 times) and dried in vacuo.
Linear peptides were cleaved from the resin by incubation (3 h, RT) with a trifluoroacetic acid (TFA) cleavage cocktail (TFA/2,2’-(ethylenedioxy)diethanethiol/triisopropyl silane/H2O (92.5:2.5:2.5:2.5)) before filtration, concentration in vacuo and precipitation with ice-cold diethyl ether. Crude peptides were washed with diethyl ether (5 times), dried and resuspended in DMSO. The pH was raised to >8 using triethylamine to allow cyclisation. Following incubation (1 h, RT), peptides were re-acidified with TFA for purification.
Crude peptides were purified by reverse-phase high-performance liquid chromatography using a Chromolith Prep column (Merck) on a Prominence LC-20AP system (Shimadzu) (Solvent A: 0.1% TFA in H2O, Solvent B: 0.1% TFA in acetonitrile) to >95% purity as determined by mass spectrometry (Fig. S17). Purified peptides were reconstituted in DMSO and concentrations determined from their absorbance at 280 nm in 5% DMSO using predicted extinction coefficients.
Surface plasmon resonance (SPR)
Measurements were conducted on a T200 or S200 (GE Healthcare) and data analysed using the Biacore Insight Evaluation Software. Experiments were performed at 4 °C in single cycle kinetics mode. Biotinylated BET bromodomains were immobilised on a CAP chip (GE Healthcare) with a […]
pH 7.5 was used as the running buffer. […]

[2] = test system: other BD families (non-BET BDs); experiment: BROMOscan competition binding assay, stated for the non-BET bromodomains together; design: species or system human; settings: peptide concentration 1 μM
Text: Again, remarkable specificity was observed.

BRD4(2) = target: T1, BRD4(2) (Homo sapiens, UniProt O60885); experiment: BROMOscan competition binding assay (BromoMAX, Eurofins DiscoverX); settings: for Percent Control BRD4(2): compound concentration 1000 nM, lower percentage control = stronger affinity
T1 construct: BRD4(2); purchased Eurofins DiscoverX (BROMOscan, BromoMAX)

BRD2-BD2 = target: T2, BRD2-BD2 (Homo sapiens, UniProt P25440); experiment: 15N-HSQC NMR titration, CSPs fitted to 1:1 binding model; settings: 15N-HSQC titration, simple 1:1 binding model; read-out: binding affinity for BRD2-BD2 from CSP data
T2 construct: human BRD2 (BD1: 65-194; BD2: 347-455); Avi tag (biotinylated); made in house; host or cells: E. coli BL21(DE3)
T2 sequence (P25440 347-455): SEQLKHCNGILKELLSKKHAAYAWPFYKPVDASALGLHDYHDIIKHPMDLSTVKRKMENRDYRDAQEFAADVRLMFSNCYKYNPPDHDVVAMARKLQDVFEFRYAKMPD
Text: (G) Overlaid section of 15N-HSQC spectra of BRD2-BD2 alone (red) or in the presence of one (yellow), two (blue), or three (green) molar equivalents of Signals that undergo the greatest CSPs in the titration are labelled in the protein alone spectrum. Binding curves were derived by tracking the combined 15N/1H chemical shift perturbations of the signals undergoing the greatest CSPs. The data were fitted to a simple 1:1 Langmuir binding isotherm using Graphpad.

SMARCA2 = target: T3, SMARCA2 (Homo sapiens, UniProt P51531); experiment: BROMOscan competition binding assay (BromoMAX, Eurofins DiscoverX); settings: for Percent Control SMARCA2: compound concentration 1000 nM, lower percentage control = stronger affinity
T3 construct: purchased Eurofins DiscoverX (BROMOscan, BromoMAX)
T3 sequence (P51531 whole entry): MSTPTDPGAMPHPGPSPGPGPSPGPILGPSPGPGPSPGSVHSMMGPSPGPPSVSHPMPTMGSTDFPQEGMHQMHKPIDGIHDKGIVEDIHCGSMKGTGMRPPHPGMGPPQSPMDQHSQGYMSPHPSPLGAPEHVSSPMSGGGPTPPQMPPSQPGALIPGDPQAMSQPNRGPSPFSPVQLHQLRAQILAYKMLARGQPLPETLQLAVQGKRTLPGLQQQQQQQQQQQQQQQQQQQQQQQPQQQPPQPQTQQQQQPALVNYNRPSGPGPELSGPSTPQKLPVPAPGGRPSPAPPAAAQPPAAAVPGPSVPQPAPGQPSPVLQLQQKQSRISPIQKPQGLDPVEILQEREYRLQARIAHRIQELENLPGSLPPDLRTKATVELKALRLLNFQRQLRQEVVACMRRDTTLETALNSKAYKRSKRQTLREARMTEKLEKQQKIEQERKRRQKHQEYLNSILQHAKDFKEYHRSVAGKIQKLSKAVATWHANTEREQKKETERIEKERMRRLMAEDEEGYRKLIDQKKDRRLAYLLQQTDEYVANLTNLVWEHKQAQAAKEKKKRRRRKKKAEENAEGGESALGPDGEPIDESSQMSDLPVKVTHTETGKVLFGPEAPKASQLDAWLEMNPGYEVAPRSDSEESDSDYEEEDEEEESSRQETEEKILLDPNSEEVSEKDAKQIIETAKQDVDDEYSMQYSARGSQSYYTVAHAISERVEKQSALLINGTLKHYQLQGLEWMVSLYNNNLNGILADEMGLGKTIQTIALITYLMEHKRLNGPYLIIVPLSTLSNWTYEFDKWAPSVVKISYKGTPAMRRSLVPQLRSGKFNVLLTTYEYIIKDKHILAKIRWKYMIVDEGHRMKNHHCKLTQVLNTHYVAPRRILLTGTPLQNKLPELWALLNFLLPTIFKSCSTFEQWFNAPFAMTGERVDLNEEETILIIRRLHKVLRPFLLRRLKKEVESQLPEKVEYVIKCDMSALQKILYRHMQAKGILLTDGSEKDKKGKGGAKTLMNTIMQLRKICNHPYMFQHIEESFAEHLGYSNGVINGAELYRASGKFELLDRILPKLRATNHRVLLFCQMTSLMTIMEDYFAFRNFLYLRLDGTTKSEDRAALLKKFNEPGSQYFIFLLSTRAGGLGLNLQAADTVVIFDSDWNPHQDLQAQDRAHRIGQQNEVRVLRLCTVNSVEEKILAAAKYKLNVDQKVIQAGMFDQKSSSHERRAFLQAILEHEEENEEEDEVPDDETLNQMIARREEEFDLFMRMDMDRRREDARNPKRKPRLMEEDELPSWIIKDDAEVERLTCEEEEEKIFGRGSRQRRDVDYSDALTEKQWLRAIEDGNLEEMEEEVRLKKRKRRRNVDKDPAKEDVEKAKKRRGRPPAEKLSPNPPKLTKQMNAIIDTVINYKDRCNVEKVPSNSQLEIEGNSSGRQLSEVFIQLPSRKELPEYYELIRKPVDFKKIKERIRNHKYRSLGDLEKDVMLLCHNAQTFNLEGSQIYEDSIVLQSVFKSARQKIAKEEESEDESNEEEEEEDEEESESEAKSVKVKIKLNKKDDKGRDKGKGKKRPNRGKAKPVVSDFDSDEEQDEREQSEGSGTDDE

WDR9(2) = target: T4, WDR9(2) (Homo sapiens, UniProt Q9NSI6); experiment: as above; settings: for Percent Control WDR9(2): compound concentration 1000 nM, lower percentage control = stronger affinity
T4 construct: WDR9(2); purchased Eurofins DiscoverX (BROMOscan, BromoMAX)
T4 sequence (Q9NSI6 1307-1433 limits assumed): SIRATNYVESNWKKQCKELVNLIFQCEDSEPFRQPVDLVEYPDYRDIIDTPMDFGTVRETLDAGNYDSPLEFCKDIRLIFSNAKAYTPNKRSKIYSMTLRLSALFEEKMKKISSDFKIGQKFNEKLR

ATAD2A = target: T5, ATAD2A (Homo sapiens, UniProt Q6PL18); experiment: as above; settings: for Percent Control ATAD2A: compound concentration 1000 nM, lower percentage control = stronger affinity
T5 construct: purchased Eurofins DiscoverX (BROMOscan, BromoMAX)
T5 sequence (Q6PL18 1-1390): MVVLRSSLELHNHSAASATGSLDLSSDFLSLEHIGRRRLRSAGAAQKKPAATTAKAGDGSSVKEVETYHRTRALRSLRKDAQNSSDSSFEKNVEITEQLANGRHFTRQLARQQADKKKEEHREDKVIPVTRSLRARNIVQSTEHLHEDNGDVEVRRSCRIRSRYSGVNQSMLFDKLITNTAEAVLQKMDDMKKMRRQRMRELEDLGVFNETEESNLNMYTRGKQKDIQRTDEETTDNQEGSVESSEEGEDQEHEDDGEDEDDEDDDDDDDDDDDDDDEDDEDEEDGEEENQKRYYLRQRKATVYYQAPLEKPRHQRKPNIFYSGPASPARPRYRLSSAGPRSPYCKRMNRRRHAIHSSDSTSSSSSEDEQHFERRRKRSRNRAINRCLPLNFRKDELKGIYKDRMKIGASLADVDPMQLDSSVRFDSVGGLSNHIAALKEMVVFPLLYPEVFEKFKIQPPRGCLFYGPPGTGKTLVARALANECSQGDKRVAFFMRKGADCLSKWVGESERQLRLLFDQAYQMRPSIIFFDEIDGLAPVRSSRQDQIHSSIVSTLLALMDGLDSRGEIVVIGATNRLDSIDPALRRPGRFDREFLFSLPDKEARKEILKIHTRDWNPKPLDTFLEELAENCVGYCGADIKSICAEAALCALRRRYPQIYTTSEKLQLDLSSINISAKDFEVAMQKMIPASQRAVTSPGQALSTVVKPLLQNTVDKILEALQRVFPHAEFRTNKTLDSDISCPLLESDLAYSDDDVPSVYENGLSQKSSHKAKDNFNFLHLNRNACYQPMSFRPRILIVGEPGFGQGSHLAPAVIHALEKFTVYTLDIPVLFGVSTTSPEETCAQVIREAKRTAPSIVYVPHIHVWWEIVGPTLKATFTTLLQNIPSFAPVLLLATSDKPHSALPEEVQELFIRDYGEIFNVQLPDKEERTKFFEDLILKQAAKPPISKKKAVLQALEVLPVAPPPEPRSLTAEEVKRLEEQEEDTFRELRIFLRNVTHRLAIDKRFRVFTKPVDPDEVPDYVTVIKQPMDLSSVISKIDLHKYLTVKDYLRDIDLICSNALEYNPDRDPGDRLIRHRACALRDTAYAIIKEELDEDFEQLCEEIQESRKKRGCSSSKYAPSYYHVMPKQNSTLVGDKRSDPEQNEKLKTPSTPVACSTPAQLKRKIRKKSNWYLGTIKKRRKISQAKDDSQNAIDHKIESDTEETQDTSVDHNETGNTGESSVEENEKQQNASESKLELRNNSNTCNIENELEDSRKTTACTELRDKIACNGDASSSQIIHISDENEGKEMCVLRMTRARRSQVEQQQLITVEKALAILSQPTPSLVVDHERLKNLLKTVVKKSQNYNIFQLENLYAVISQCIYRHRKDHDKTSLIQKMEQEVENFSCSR

SMARCA4 = SMARCA4 (Homo sapiens, UniProt P51532); settings: compound concentration 1000 nM; lower percentage control = stronger affinity
Sequence of SMARCA4 (P51532 whole entry): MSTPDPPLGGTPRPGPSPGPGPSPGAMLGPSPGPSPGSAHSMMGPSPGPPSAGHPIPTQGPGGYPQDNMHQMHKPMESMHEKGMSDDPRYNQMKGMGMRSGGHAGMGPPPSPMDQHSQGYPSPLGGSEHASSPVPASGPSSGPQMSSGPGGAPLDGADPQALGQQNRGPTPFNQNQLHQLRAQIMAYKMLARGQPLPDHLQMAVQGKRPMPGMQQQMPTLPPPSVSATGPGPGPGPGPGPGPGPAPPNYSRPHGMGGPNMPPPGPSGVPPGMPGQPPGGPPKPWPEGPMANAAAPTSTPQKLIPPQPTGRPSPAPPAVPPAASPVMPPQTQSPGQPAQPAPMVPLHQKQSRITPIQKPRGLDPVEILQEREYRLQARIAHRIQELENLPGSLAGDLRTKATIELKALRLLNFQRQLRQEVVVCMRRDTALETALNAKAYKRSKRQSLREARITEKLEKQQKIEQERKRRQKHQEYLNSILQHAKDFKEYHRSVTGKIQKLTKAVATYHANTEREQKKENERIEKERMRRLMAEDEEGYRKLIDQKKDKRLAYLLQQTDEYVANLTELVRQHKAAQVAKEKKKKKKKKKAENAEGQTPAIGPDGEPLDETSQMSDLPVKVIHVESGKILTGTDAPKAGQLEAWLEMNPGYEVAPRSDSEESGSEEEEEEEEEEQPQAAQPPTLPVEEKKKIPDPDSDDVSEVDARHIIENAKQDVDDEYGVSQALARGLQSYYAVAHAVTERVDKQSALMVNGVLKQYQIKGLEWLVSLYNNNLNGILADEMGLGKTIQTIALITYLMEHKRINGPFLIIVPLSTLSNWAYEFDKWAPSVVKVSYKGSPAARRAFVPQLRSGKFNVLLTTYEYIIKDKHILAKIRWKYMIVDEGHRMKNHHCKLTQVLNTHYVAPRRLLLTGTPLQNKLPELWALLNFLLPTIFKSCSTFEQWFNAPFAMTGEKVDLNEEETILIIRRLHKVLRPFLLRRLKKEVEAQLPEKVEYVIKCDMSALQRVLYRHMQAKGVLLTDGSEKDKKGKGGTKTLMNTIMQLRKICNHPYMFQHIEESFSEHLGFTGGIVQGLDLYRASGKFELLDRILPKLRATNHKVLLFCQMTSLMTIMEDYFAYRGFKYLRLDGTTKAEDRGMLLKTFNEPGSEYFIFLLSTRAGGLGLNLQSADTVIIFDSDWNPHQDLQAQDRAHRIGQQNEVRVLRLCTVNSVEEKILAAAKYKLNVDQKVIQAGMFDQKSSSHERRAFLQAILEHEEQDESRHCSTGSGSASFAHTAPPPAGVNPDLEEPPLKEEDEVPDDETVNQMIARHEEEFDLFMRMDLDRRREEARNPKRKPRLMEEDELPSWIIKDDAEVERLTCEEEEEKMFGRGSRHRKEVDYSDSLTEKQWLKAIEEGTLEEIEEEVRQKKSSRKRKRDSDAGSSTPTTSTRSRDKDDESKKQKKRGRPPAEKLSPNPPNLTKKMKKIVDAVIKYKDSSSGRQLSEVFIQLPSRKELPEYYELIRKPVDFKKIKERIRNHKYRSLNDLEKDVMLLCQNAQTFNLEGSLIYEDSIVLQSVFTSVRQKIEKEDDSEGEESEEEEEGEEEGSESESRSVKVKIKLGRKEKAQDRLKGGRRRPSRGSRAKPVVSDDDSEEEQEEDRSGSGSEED

SMILES	affinity for BRD2-BD1 and BRD4-BD1 within a factor of the affinity for BRD3-BD1 [1] [factor]	binding to other (non-BET) BD families (in words) [2]	Percent Control BRD4(2) (BRD4(2)) [%]	Kd (BRD2-BD2) [µM]	Percent Control SMARCA2 (SMARCA2) [%]	Percent Control WDR9(2) (WDR9(2)) [%]	Percent Control ATAD2A (ATAD2A) [%]	Percent Control SMARCA4 (SMARCA4) [%]	remaining binding at 1 µM (BRD4(2); read-out: Percent Control BRD4(2)) [%]	percent of control binding at 1 µM (SMARCA2) [%]	percent of control binding at 1 µM (WDR9(2)) [%]	percent of control binding at 1 µM (ATAD2A) [%]
CC[C@H](C)[C@@H]1NC(=O)[C@H]([C@@H](C)O)NC(=O)[C@H](CCCCN)NC(=O)[C@H](Cc2c[nH]c3ccccc23)NC(=O)CSC[C@@H](C(N)=O)NC(=O)[C@H](CCC(N)=O)NC(=O)[C@H](CCCCNC(C)=O)NC(=O)[C@H]([C@@H](C)O)NC(=O)[C@H](CCCNC(=N)N)NC(=O)[C@H](Cc2c[nH]c3ccccc23)NC(=O)[C@H]([C@@H](C)O)NC(=O)[C@H](CCCCNC(C)=O)NC(=O)CNC(=O)[C@H](CCCCNC(C)=O)NC1=O [3.1B] ({CH2CO}-WKTIK(Ac)GK(Ac)TWRTK(Ac)QC-NH2; thioether N-14)	2 to 4	almost no binding	99	~300	34	96	92	77				
CC[C@H](C)[C@H](NC(=O)[C@H](CCCNC(=N)N)NC(=O)[C@H](CCCCNC(C)=O)NC(=O)[C@H](CCCNC(=N)N)NC(=O)[C@H](CC(C)C)NC(=O)[C@@H]1CSCC(=O)N[C@@H](Cc2c[nH]c3ccccc23)C(=O)N[C@@H](CCCCNC(C)=O)C(=O)NCC(=O)N[C@@H](Cc2ccc(O)cc2)C(=O)N[C@@H](CC(C)C)C(=O)N1)C(=O)N[C@@H](CCC(N)=O)C(=O)N[C@@H](CCCNC(=N)N)C(=O)N[C@H](C(=O)N[C@@H](Cc1ccc(O)cc1)C(=O)N[C@@H](CC(N)=O)C(N)=O)[C@@H](C)O [4.2C] ({CH2CO}-WK(Ac)GYLCLRK(Ac)RIQRTYN-NH2; thioether N-6)									24	36	85	85
CC[C@H](C)[C@@H]1NC(=O)[C@H](Cc2c[nH]c3ccccc23)NC(=O)[C@H](Cc2c[nH]c3ccccc23)NC(=O)CSC[C@@H](C(N)=O)NC(=O)CNC(=O)[C@H](CCCCNC(C)=O)NC(=O)[C@H](CCCCN)NC(=O)[C@H](C(C)C)NC(=O)[C@H](CCCCNC(C)=O)NC(=O)[C@@H]2CCCN2C(=O)[C@H]([C@@H](C)CC)NC1=O [3.1C] ({CH2CO}-WWIIPK(Ac)VKK(Ac)GC-NH2; thioether N-11)	2 to 4	almost no binding	13		35	87	92	87				
